The results in this text go back to publication PMC12352619, “Phylogeny-guided discovery of a promiscuous P450 macrocyclase for the production of diverse atropopeptides” (Chemical Science, 2025).

For one series, the system named is ICAM1. The class given is cell-based, mouse. Conditions: b.End.3 cells, 1 µg/ml LPS, peptide 1 µg/ml added 8 hours after stimulation, for 60 h, flow cytometry, n = 6 technical replicates. Background: In flow cytometry, cells or beads pass a laser one at a time.
The test system of a further series is VCAM1. The class given is cell-based, mouse. Conditions: b.End.3 cells, 1 µg/ml LPS, peptide 1 µg/ml added 8 hours after stimulation, for 60 h, flow cytometry, n = 6 technical replicates.
Series [1] has as its system A/Hamburg/05/2009 (H1N1pdm). As to the kind of experiment: Screening of antiviral activity in MDCK II cells, H1N1pdm. The class given is cell-based, influenza virus. Conditions: for antiviral effect: MOI 0.001, 48 h, CellTiter-Glo, normalized to aprotinin = 100%; for antiviral efficacy compared among the tested atropopeptides: statement made for the four strains together. A general note: Cellular ATP, detected with luciferase, serves as a proxy for viable cell number.

The test system of the next series is A/Hessen/1/2003 (H3N2). The series is described as follows: Screening of antiviral activity in MDCK II cells, H3N2. The class given is cell-based, influenza virus. Conditions: for antiviral effect: MOI 0.001, 48 h, CellTiter-Glo, normalized to aprotinin = 100%; for antiviral efficacy compared among the tested atropopeptides: statement made for the four strains together.

The subject of series [2] is B/Malaysia/2506/2004 (Malaysia/B). The series is described as follows: Screening of antiviral activity in MDCK II cells, Malaysia/B. The class given is cell-based, influenza virus. Conditions: for antiviral effect: MOI 0.001, 48 h, CellTiter-Glo, normalized to aprotinin = 100%; for antiviral efficacy compared among the tested atropopeptides: statement made for the four strains together.

Series [3] deals with B/Massachusetts/71 (Massachusetts/B). As to the kind of experiment: Screening of antiviral activity in MDCK II cells, Massachusetts/B. The class given is cell-based, influenza virus. Conditions: for antiviral effect: MOI 0.001, 48 h, CellTiter-Glo, normalized to aprotinin = 100%; for antiviral efficacy compared among the tested atropopeptides: statement made for the four strains together.

For another series, the system named is MDCK II cells. Conditions: 100 µM, 48 h, CellTiter-Glo.

For “H-WYIW-OH (also: sidechain bridge or staple (positions not given here)) [compound 1, scabrirubin CB-1, cyclic tetrapeptide from S. albus/pUWL-LauA + ScaB, C–N biaryl crosslink between Trp-1 and Trp-4]”, the “ICAM1 expression (mean fluorescence intensity)” value (from here on “ICAM1 expression”) in the series with ICAM1 was “slight reduction”. In addition, in the series with VCAM1, the “VCAM1 expression (mean fluorescence intensity)” value (“VCAM1 expression” for short) was “unchanged”. Moreover, the antiviral effect result (in series [1]; in the series on A/Hessen/1/2003 (H3N2); in series [2]; in series [3]) was “dose-dependent antiviral effect” in each case. Also, the “antiviral efficacy compared among the tested atropopeptides” value (in series [1]; in the series with A/Hessen/1/2003 (H3N2); in series [2]; in series [3]) was “comparable antiviral efficacies” each time. Moreover, the “cytotoxicity toward MDCK II cells (cell viability, ATP)” value (“cytotoxicity toward MDCK II cells” for short) in the series on MDCK II cells was “did not show cytotoxicity”.

As for “H-WYQWL-OH (also: sidechain bridge or staple (positions not given here)) [compound 3, scabrirubin CB-3, cyclic pentapeptide from S. albus/pUWL-SvaA + ScaB with C–N biaryl crosslink]”, the “ICAM1 expression” value with ICAM1 is on record as “significantly reduced”. Further, the “VCAM1 expression” value in the series on VCAM1 is reported as “significantly reduced”. Also, the antiviral effect result (in series [1]; in the series with A/Hessen/1/2003 (H3N2); in series [2]; in series [3]) was “dose-dependent antiviral effect” each time. Further, the “antiviral efficacy compared among the tested atropopeptides” value (in series [1]; with A/Hessen/1/2003 (H3N2); in series [2]; in series [3]) was “slightly reduced activity” each time. The “cytotoxicity toward MDCK II cells” value with MDCK II cells was “did not show cytotoxicity”.

With scabrirubin [reference compound], the “ICAM1 expression” value in the series on ICAM1 is recorded as “slight reduction”. Besides, the “VCAM1 expression” value in the series with VCAM1 was “slightly elevated”. For the same substance, the antiviral effect entry (in series [1]; in the series on A/Hessen/1/2003 (H3N2); in series [2]; in series [3]) was “dose-dependent antiviral effect” each time. Besides, the “antiviral efficacy compared among the tested atropopeptides” value (in series [1]; with A/Hessen/1/2003 (H3N2); in series [2]; in series [3]) was “comparable antiviral efficacies” each time. Besides, in the series with MDCK II cells, the “cytotoxicity toward MDCK II cells” value was “did not show cytotoxicity”.
